This passage reports bioavailability, IC50 and Activity results from ChEMBL document CHEMBL4321852, “Structure-Based and Property-Driven Optimization of N-Aryl Imidazoles toward Potent and Selective Oral RORγt Inhibitors” (J Med Chem, 2019).

Structures are written as SMILES.

The nature of data set [1]: Oral bioavailability in DA rat at 3 mg/kg. The note with it: in vivo. In kind it is ADME, organism-based.
The target of data set [2] is T1, Nuclear receptor ROR-gamma (Homo sapiens, UniProt P51449).
T1 sequence (P51449 whole entry): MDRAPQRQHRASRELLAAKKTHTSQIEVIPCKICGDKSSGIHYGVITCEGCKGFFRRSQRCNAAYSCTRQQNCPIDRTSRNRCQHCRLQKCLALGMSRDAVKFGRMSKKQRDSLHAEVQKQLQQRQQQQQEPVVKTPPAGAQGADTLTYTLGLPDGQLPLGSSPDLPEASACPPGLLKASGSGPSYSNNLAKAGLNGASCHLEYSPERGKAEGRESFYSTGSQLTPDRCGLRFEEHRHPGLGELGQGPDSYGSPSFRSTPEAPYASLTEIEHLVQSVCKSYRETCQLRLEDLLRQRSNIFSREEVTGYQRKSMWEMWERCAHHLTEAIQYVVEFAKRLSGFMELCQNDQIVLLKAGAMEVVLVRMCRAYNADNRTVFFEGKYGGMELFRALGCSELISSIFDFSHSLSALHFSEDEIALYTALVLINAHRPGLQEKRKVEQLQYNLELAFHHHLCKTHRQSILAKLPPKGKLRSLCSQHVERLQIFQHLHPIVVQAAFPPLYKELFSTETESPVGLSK
The experiment in a line: Inhibition of Gal4-tagged RORgammat LBD (unknown origin) by cell based luciferase reporter gene assay.

The test system of another data set is Rattus norvegicus. The experiment in a line: Anti-inflammatory activity in mBSA/CFA-immunized Lewis rat delayed-type hypersensitivity model assessed as reduction in frequencies of IL-17-producing draining lymph node cells at 1 to 15 mg/kg, po via gavage administered twice daily for 2 days treated prior to mBSA/CFA challenge. Type of data set: functional, organism-based.

In turn, `Cc1c(C2(C(F)(F)F)CC2)nc(C2CC2)n1-c1c(Cl)ccc(N2CC3(CC(C(=O)O)C3)C2)c1Cl` (single isomer, unassigned; atropisomer) returned a bioavailability in data set [1] of 90%. The compound further showed a concentration for half-maximal inhibition (IC50) in data set [2] of 151 nM. The Activity result in the data set on Rattus norvegicus was “Dose-dependent effect”.
